Measured values reported in publication doi:10.1101/2025.05.22.655130v1, “Design to Data for mutants of β-glucosidase B from Paenibacillus polymyxa: L336M, L336A, L336S, L336H, D35E, D35W” (biorxiv, 2025).

Molecular target: T1, β-glucosidase B (BglB) (Paenibacillus polymyxa, UniProt P22505)
T1 construct: previously cloned in pET29b+, expressed in E. coli, purified by nickel IMAC; band about 50 kD
Test: Michaelis-Menten, 4-nitrophenol release at […] nm
Type: biochemical
Conditions: 0.11-100 mM substrate, readings every minute for 15 min; triplicate

T1 sequence (P22505 whole entry): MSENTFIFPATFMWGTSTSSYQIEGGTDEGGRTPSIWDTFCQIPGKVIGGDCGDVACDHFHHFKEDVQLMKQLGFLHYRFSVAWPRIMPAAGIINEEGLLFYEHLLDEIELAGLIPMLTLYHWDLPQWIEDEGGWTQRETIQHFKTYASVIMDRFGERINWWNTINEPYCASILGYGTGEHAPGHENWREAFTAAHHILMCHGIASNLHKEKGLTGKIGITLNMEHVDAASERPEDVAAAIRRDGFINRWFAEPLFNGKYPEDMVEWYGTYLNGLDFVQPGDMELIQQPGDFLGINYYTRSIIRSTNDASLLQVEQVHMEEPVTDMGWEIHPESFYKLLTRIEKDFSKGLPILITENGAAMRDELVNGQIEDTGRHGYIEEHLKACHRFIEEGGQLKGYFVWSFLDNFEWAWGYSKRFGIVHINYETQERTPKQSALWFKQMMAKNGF

O=[N+]([O-])c1ccc(O[C@@H]2O[C@H](CO)[C@@H](O)[C@H](O)[C@H]2O)cc1 [pNPG, p-nitrophenyl-beta-D-glucoside]
Km: 3.93 ± 0.26 mM
